Reference: patent publication US9139842B2, “Methods and compositions for targeting sequences of interest to the chloroplast” (PIONEER HI-BRED INTERNATIONAL, INC., priority 2010, dated 2015)

Experiments:
[1] = test system: maize leaf chloroplasts; experiment: Agro-infiltration of maize leaves with DsRed2 fusions, fluorescence microscopy; assay type: cell-based, Zea mays; settings: Example 16, assayed as described in Example 4
From the text: A vector was constructed in which the portion of the maize HPPD (SEQ ID NO: 9) gene coding for the N-terminal 50 amino acids was fused to the gene coding for Discosoma sp. red fluorescence protein 2 (DsRed2) and inserted into a binary expression vector under control of the maize Rubisco activase promoter (Liu et al. (1996) Plant Physiol. 112(1): 43-51) and terminated with the Solanum tuberosum proteinase inhibitor II (pinII) terminator region (An et al. (1989) Plant Cell 1:115-122) with a hygromycin selection cassette. Both genes are between left and right border sequences from Agrobacterium.
A positive control vector was identical to the vector having the N-terminal 50 amino acids of maize HPPD described above except that the HPPD CTP was removed and the DsRed2 insert was fused to the chloroplast targeting peptide of Zea maize rubisco activase, while a negative control was DsRed2 with no targeting sequence. […] Agro-infiltration is a well described method (Kapila et. al. (1997) Plant Science, 122:101-108) of introducing an Agrobacterium cell suspension to plant cells of intact tissues so that reproducible infection and subsequent plant derived trans-gene expression may be measured or studied.
Leaves of 3-week old maize seedlings were infiltrated with the Agrobacterium, and examined by fluorescence microscopy two days later (Nikon Eclipse 80i, DsRed filter set). […]

[2] = test system: sorghum leaves plastids; experiment: Agro-infiltration of sorghum leaves with DsRed fusions; assay type: cell-based
[3] = test system: G. max leaf cell chloroplasts; experiment: Transient expression of Gm HPPD-AcGFP fusion proteins in soy leaf discs; assay type: cell-based, Glycine max
From the text: Transient expression experiments indicate that the long HPPD protein (SEQ ID NO: 57) is imported to chloroplasts, while the short protein (SEQ ID NO: 59) remains in the cytosol. Plant expression cassettes were constructed fusing portions of the N terminus of Gm HPPD to an Aequorea coerulescens green fluorescent protein 1 (AcGFP1). One fusion contained amino acid residues 1-86 of the long Gm HPPD protein. Another contained residues 1-44 of the short HPPD protein (this corresponds to residues […] of the long protein). These cassettes were incorporated into binary vectors which also contained an untargeted DsRed2 expression cassette and introduced into A. tumefaciens strain AGL 1 and then used to infect leaf discs of G. max as described in Example 3 of U.S. Utility application Ser. No. 13/209,017, now issued U.S. Pat. No. 8,993,837, entitled “Chimeric Promoter and Methods of Use”, filed concurrently herewith and herein incorporated by reference in its entirety.

[4] = test system: maize cell chloroplasts; experiment: Agro-infiltration of maize leaves with G. max HPPD N-terminus AcGFP1 fusions; assay type: cell-based, Zea mays; settings: 4-week old maize seedlings, three days after infiltration
From the text: Vectors were constructed in which a portion of the gene coding for the G. max HPPD N-terminus was fused to a gene encoding Aequorea coerulescens green fluorescent protein 1 (AcGFP1) and inserted into a binary expression vector under control of the Arabidopsis Ubiquitin 10 promoter (Norris et al. (1993) Plant Mol. Biol. 21, 895-906) and terminated with the Glycine max Kunitz trypsin inhibitor 3 terminator region (NCBI accession S45092). Both genes were between left and right border sequences from Agrobacterium. One fusion contained amino acid residues 1-86 of the long Gm HPPD protein (SEQ ID NO:57). […]
A positive control vector was identical except that the AcGFP1 coding region was fused to the 6H1 synthetic chloroplast targeting peptide (U.S. Pat. No. 7,345,143), while a negative control was AcGFP1 with no targeting sequence. […] Agro-infiltration is a well described method (Kapila et. al. (1997) Plant Science, 122:101-108) of introducing an Agrobacterium cell suspension to plant cells of intact tissues so that reproducible infection and subsequent plant trans-gene expression may be measured or studied.
Leaves of 4-week old maize seedlings were infiltrated with the Agrobacterium, and examined by fluorescence microscopy three days later (Nikon Eclipse 80i, Narrow band-pass GFP filter set). […]

[5] = test system: stably transformed soybean cells; experiment: Immunogold localization of maize HPPD in stably transformed soybean leaf; assay type: cell-based, Glycine max; settings: anti-maize HPPD antibody
From the text: Polyclonal antibodies were raised in rabbits against recombinant maize HPPD protein purified by nickel chelate affinity chromatography. Anti-HPPD antibodies were purified from serum by affinity chromatography on immobilized maize HPPD, and further purified by passage through a column of immobilized Rubisco, to remove a small fraction of antibodies that reacted with both HPPD and Rubisco. Leaf punches taken form stably transformed soybean plants expressing a gene encoding the maize HPPD protein (SEQ ID NO: 10) driven by an SCP1 synthetic promoter (U.S. Pat. No. 6,072,050) were fixed in 2% paraformaldehyde, 0.25% glutaraldehyde in 100 mM Na phosphate buffer, pH 7.0, for 3 hours at room temperature, dehydrated by passage through progressively higher concentrations of ethanol, embedded in LR White resin and cured at 55° C. for 48 hours. Sections (0.9 microns) were transferred onto Excell Adhesion glass microscope slides (Electron Microscopy Sciences). Immunolocalization was performed with the primary antibody being the double-purified anti-maize HPPD (1:200) and the secondary antibody goat anti-rabbit F(ab′) conjugated with gold particles (Aurion ultrasmall gold). Gold labeling was followed by silver enhancement (Aurion R-GENT SE-EM). […] Material was analyzed with a YAG detector for backscatter signal in a Hitachi 54800 scanning electron microscope. […]

[6] = test system: maize HPPD; experiment: HPPD activity assay of maize HPPD variants expressed in E. coli; assay type: biochemical, Zea mays; settings: N-terminal truncated variants of maize wild-type HPPD, single measurement
From the text: Organellar targeting sequences are usually cleaved after the peptide enters the organelle. Previous investigators (Fritze I et al. (2004) Plant Physiology 134:1388-1400; Yang C et al. (2004) Biochemistry 43: 10414-10423) have shown that native mature maize HPPD begins at either ala17 or ala23. Variants of the wild-type maize HPPD protein coding region were created with various lengths of the amino terminus removed. The sequences were expressed in E. coli and tested for activity and stability. In each case a methionine start codon was added to the truncated sequence. Proteins were designated by the position of their N-terminal amino acid (all alanines) as in SEQ ID NO: 9. All N-terminal truncated proteins retained the HPPD activity. […] Assaying HPPD activity was carried out as described in Example 1 of Provisional Application 61/401,456, filed Aug. 13, 2010, Compositions and Methods Comprising Sequences having Hydroxyphenylpyruvate Dioxygenase (HPPD) Activity, herein incorporated by reference in it entirety.

## MPPTPTTAAATGAGAAAAVTPEHAAFRLVGHRRFVRFNPRSDRFHTLAFHHVE [53 amino acid consensus sequence]
[1]
  DsRed localization: effectively targeted DsRed to maize plastids
[2]
  DsRed reporter localization: efficiently targeted the DsRed reporter protein to plastids

## residues 42-86: residues 1-44 of the short Gm HPPD protein (42-86 of the long protein) fused to AcGFP1
[3]
  AcGFP green fluorescence localization: green fluorescence is visible only in the cytoplasm
[4]
  AcGFP marker protein localization: delivered the protein to the cytosol

B1: maize HPPD: Maize WT HPPD (from WO1997049816 SEQ ID NO: 11), SEQ ID NO: 10 (protein)
chain: MPPTPTAAAAGAAVAAASAAEQAAFRLVGHRNFVRFNPRSDRFHTLAFHHVELWCADAASAAGRFSFGLGAPLAARSDLSTGNSAHASLLLRSGSLSFLFTAPYAHGADAATAALPSFSAAAARRFAADHGLAVRAVALRVADAEDAFRASVAAGARPAFGPVDLGRGFRLAEVELYGDVVLRYVSYPDGAAGEPFLPGFEGVASPGAADYGLSRFDHIVGNVPELAPAAAYFAGFTGFHEFAEFTTEDVGTAESGLNSMVLANNSENVLLPLNEPVHGTKRRSQIQTFLDHHGGPGVQHMALASDDVLRTLREMQARSAMGGFEFMAPPTSDYYDGVRRRAGDVLTEAQIKECQELGVLVDRDDQGVLLQIFTKPVGDRPTLFLEIIQRIGCMEKDEKGQEYQKGGCGGFGKGNFSQLFKSIEDYEKSLEAKQAAAAAAAQGS
modifications: Zea mays
[5]
  gold labeling localization: mainly in cytosol and nuclei, but also in chloroplasts

B2: Maize wt: wild-type maize HPPD protein (SEQ ID NO: 9) expressed in E. coli (protein)
chain: MGPTPTAAAAGAAVAAASAAEQAAFRLVGHRNFVRFNPRSDRFHTLAFHHVELWCADAASAAGRFSFGLGAPLAARSDLSTGNSAHASLLLRSGSLSFLFTAPYAHGADAATAALPSFSAAAARRFAADHGLAVRAVALRVADAEDAFRASVAAGARPAFGPVDLGRGFRLAEVELYGDVVLRYVSYPDGAAGEPFLPGFEGVASPGAADYGLSRFDHIVGNVPELAPAAAYFAGFTGFHEFAEFTTEDVGTAESGLNSMVLANNSENVLLPLNEPVHGTKRRSQIQTFLDHHGGPGVQHMALASDDVLRTLREMQARSAMGGFEFMAPPTSDYYDGVRRRAGDVLTEAQIKECQELGVLVDRDDQGVLLQIFTKPVGDRPTLFLEIIQRIGCMEKDEKGQEYQKGGCGGFGKGNFSQLFKSIEDYEKSLEAKQAAAAAAAQGS
modifications: Zea mays
[6]
  kcat: 2.77 s⁻¹
